Series [1] has as its system purified mitochondria. Nature of the series: Peptide/phage binding to purified mitochondria. Details: species or system mouse. The conditions noted are these: increasing concentrations of unlabeled peptide. How it is done: Isolation of mitochondria and peptide/phage binding. Mitochondria were isolated from livers of Balb/c mice using differential centrifugation with buffers from a Pierce mitochondrial isolation kit for tissue according to the manufacture's instruction (Pierce Biotechnology, Rockford, Ill.). To test the binding of the CGKRK peptide to mitochondria, purified mitochondria were pre-incubated with various concentrations of non-labeled CGKRK or control peptide (CREKA; SEQ ID NO:92) for 30 min 4° C. FAM-CGKRK was then added and incubated for an additional 1 hour. The binding of the FAM peptide was quantified by fluorescence. In phage binding assays, purified mitochondria were suspended in 10 ml DMEM supplemented with 1% BSA, and incubated with 5×10^8 plaque-forming units (pfu) of peptide-displaying phage, overnight at 4° C. The mitochondria were washed 3 times with DMEM/BSA, the phage were collected with lysogeny broth containing 1% NP-40, and quantified by plaque assay.

Series [2] relates to proteins from brain tumor extracts. Nature of the series: CGKRK-binding proteins in glioblastoma tumor extracts (affinity matrix). The conditions noted are these: mass spectrometry. The source says: Proteins from brain tumor extracts were bound to insolubilized (SulfoLink Resin; Pierce Biotechnology) CGKRK peptide. Proteins were eluted from the affinity matrix with either CGKRK peptide or with CREKA (SEQ ID NO:92) peptide (negative control). Silver-stained gels were used to show the proteins eluted with CGKRK and CREKA (SEQ ID NO:92). […] The bands in the CGKRK eluate were identified by mass spectrometry as the proteins listed.

Series [3] concerns mitochondria in HUVEC. Nature of the series: Live cell imaging, co-localization with mitochondrial marker. It is filed as cell-based, human. As for the experimental part: (§1) Cell proliferation assay and imaging. The MTT [3-[4,5-dimethylthazol-2-yl]-2,5-diphenyl tetrazolium-bromide] assay (Molecular Probes, Eugene, Oreg.) was used to quantify cell proliferation. Cells were seeded in complete medium into 96-well plates (5×10^3 cells/well), and allowed to attach overnight at 37° C. in a humidified 5% CO2 atmosphere. The culture media was then removed and various concentrations of peptides or NWs were added. After 48, and 72 hours, 10 μL of the MTT reagent (5 mg/mL in PBS) was added to each well. The medium was removed from cells after 3 hours, and […] of DMSO:MEOH (1:1 v/v) were added to each well. The plates were read at a wavelength of 595 nm. For live cell imaging, cells seeded on glass-bottom plates (Willco, Amsterdam, Netherlands), and 24 hours later, the cells were washed and incubated with FAM-labeled peptides or NWs for 45 min at 37° C. The cells were then rinsed three times with PBS and incubated for an additional 15 min at 37° C. with […] MitoTracker Red (Molecular Probes, Eugene, Oreg.) followed by nuclear staining with Hoechst 33342 DNA dyes (Molecular Probe, Eugene, Oreg.) for 12 min. The cells were analyzed with Fluoview FV 500 confocal microscopy (Olympus America, Center Valley, Pa.).

Series [4] concerns mitochondria in U87 cells. The description is as above. Type of series: cell-based, human. As for the experimental part: as §1
Series [5] has as its system GBM tumors. As to the kind of experiment: In vivo peptide homing. The conditions noted are these: 200 μg Rd-labeled peptide i.v., 3 hours, 005 tumor mice. Set-up: species or system mouse. As for the experimental part: In vivo peptide homing. […] Rhodamine-labeled CGKRK (200 μg) was intravenously injected into the mice and allowed to circulate for 3 hours. The mice were perfused with PBS through the heart under anesthesia, and tissues were collected and processed for fluorescence analysis.

Here are results for four compounds from patent US20170246236A1, “METHODS AND COMPOSITIONS FOR ENHANCED DELIVERY OF COMPOUNDS” (Sanford Burnham Prebys Medical Discovery Institute, priority 2010, published 2017).

Residues, ends and D or L forms follow the SMILES beside them.

On to “CREKA: Unrelated control peptide, SEQ ID NO:92 (clot binding/homing peptide)”, for which the “inhibition of FAM-CGKRK binding to mitochondria by unlabeled peptide” value in series [1] is given as “not”. For the same compound, the “proteins eluted from CGKRK affinity matrix” value in series [2] is given as “failed to elute any visible protein bands”.
Consider `CC(C)C[C@@H](NC(=O)[C@H](N)CCCCN)C(=O)N[C@H](C)C(=O)N[C@H](CCCCN)C(=O)N[C@H](CC(C)C)C(=O)N[C@H](C)C(=O)N[C@H](CCCCN)C(=O)N[C@H](CCCCN)C(=O)N[C@H](CC(C)C)C(=O)N[C@H](C)C(=O)N[C@H](CCCCN)C(=O)N[C@H](CC(C)C)C(=O)N[C@H](C)C(=O)N[C@H](CCCCN)C(=O)N[C@@H](CS)C(=O)NCC(=O)N[C@@H](CCCCN)C(=O)N[C@@H](CCCNC(=N)N)C(=O)N[C@@H](CCCCN)C(=O)O` [CGKRK-D[KLAKLAK]2 peptide], for which the co-localization with mitochondria entry in series [3] and in series [4] was “colocalized with mitochondria” in each case.
For `N=C(N)NCCC[C@H](NC(=O)[C@H](CCCCN)NC(=O)CNC(=O)[C@@H](N)CS)C(=O)N[C@@H](CCCCN)C(=O)O` [CGKRK, Cys-Gly-Lys-Arg-Lys] (H-CGKRK-OH), the “peptide in normal tissues” value is reported as “not in normal tissues” in series [5] and “appeared in kidney but not in heart, pancreas, liver, lung, or spleen” in series [5] (listed as CGKRK peptide).
For the compound “D[KLAKLAK]2: α-helical amphipathic pro-apoptotic peptide, SEQ ID NO:3 (KLAKLAKKLAKLAK; D-amino acids; membrane perturbing molecule) [reference compound]”, the co-localization with mitochondria entry in series [3] and in series [4] was “did not” each time.
